For three compounds, IC50 and Ratio IC50 results are on record in ChEMBL document CHEMBL4257082, “Nhe3-binding compounds and methods for inhibiting phosphate transport” (2016).

Assay [1] addresses Sodium/hydrogen exchanger 3 (Rattus norvegicus, UniProt P26433). Briefly: Inhibition of rat NHE3.
For assay [2], the target named is T1, Sodium/hydrogen exchanger 2 (Rattus norvegicus, UniProt P48763).
T1 sequence (P48763 whole entry): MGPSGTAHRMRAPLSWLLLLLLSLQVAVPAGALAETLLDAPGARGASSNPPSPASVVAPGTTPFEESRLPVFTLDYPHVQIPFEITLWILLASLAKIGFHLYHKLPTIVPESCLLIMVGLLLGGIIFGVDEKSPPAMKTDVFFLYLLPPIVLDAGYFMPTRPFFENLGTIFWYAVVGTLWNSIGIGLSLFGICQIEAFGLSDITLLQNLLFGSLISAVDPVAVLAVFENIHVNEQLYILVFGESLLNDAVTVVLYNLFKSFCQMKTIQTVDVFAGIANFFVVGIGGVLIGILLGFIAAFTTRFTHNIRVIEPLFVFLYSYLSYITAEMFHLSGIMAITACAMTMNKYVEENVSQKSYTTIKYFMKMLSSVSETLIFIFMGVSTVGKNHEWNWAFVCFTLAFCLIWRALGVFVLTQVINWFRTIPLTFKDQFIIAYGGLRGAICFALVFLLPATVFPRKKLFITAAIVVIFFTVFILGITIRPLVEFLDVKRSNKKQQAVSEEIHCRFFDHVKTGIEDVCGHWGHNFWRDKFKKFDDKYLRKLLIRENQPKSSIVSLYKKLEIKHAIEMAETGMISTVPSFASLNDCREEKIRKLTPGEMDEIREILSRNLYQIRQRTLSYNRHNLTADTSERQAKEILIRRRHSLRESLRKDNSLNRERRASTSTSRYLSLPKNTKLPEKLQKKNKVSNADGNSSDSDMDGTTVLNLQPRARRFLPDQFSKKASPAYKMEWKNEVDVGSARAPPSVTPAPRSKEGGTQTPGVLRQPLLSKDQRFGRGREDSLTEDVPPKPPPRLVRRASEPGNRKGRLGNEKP
Briefly: Inhibition of rat NHE2.

In assay [3] the target is Sodium/hydrogen exchanger 1 (Rattus norvegicus, UniProt P26431). Nature of the assay: Inhibition of rat NHE1.
The species entered for another assay is Homo sapiens. Nature of the assay: Selectivity ratio of IC50 for NHE3 (unknown origin) to IC50 for NHE1 (unknown origin).
Assay [4] addresses Sodium/hydrogen exchanger 1 (Oryctolagus cuniculus, UniProt P23791). Briefly: Inhibition of rabbit NHE1.
The target in assay [5] is T2, Sodium/hydrogen exchanger 5 (Homo sapiens, UniProt Q14940).
T2 sequence (Q14940 whole entry): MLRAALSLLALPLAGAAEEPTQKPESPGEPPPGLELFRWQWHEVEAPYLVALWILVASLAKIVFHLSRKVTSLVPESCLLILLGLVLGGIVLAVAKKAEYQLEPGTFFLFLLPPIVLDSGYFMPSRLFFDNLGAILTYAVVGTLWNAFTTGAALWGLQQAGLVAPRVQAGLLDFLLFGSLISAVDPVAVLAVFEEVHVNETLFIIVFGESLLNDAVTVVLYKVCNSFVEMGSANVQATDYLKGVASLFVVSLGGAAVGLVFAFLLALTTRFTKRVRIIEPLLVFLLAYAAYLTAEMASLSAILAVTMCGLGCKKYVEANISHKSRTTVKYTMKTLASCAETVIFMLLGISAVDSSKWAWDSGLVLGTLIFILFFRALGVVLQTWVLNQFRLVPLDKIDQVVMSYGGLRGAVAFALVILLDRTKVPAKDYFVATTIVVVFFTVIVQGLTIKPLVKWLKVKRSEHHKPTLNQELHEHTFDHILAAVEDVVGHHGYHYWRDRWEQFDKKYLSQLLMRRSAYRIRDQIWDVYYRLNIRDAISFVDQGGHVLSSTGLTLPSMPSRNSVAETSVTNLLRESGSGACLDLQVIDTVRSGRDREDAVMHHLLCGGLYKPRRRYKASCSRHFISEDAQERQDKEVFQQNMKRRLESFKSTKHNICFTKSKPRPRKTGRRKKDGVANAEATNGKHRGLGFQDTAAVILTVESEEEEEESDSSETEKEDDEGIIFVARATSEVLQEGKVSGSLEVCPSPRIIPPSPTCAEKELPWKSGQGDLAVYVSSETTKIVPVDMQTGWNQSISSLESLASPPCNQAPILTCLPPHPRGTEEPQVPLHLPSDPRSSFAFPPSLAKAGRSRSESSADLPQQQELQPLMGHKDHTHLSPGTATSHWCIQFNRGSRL
Nature of the assay: Inhibition of NHE5 (unknown origin).

In assay [6] the target is T3, Sodium/hydrogen exchanger 2 (Oryctolagus cuniculus, UniProt P50482).
T3 sequence (P50482 whole entry): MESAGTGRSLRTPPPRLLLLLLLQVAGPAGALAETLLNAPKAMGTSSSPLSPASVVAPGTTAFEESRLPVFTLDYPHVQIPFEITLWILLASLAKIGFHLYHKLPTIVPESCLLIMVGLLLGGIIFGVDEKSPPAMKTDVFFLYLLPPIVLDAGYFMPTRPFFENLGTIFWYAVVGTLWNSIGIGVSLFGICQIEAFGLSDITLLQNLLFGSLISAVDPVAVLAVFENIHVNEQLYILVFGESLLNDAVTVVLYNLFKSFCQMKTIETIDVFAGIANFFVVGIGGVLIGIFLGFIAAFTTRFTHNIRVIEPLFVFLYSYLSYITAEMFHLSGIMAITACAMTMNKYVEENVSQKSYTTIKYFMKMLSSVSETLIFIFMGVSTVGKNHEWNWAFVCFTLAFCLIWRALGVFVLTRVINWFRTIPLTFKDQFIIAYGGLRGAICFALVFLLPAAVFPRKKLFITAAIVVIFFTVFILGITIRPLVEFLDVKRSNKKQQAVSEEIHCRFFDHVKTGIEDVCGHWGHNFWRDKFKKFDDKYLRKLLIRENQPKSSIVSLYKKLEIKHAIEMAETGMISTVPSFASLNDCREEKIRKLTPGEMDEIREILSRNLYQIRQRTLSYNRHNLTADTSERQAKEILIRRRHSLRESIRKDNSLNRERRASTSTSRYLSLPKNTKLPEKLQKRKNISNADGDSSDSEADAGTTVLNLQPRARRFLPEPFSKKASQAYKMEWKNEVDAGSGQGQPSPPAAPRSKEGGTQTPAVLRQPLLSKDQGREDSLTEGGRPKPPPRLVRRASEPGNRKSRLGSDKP
Nature of the assay: Inhibition of rabbit NHE2.

Chain of Sodium/hydrogen exchanger 3 (P26433 whole entry): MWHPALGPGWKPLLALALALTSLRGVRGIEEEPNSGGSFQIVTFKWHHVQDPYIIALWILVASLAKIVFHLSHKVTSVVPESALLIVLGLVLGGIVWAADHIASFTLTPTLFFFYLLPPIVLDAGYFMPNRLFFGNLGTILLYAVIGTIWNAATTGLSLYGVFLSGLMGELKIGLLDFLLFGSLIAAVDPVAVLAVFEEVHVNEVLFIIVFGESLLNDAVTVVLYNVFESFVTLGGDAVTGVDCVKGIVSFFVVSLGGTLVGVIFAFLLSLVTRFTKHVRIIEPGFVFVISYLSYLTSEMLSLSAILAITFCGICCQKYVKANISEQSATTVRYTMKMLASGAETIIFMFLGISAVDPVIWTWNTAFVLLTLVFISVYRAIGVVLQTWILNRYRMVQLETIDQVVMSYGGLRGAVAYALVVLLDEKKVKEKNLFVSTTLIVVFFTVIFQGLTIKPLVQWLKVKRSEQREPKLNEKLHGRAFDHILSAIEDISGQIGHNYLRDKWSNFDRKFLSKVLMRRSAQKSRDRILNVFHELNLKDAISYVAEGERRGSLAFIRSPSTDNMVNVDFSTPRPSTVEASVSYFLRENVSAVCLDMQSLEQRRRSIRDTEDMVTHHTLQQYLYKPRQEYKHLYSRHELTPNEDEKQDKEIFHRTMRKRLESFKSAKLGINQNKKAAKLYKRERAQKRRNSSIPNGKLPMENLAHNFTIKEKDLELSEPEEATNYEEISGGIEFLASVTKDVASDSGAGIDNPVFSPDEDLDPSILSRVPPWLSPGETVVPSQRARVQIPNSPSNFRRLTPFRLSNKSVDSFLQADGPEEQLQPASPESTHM
Chain of Sodium/hydrogen exchanger 1 (Rattus norvegicus, UniProt P26431) (P26431 whole entry): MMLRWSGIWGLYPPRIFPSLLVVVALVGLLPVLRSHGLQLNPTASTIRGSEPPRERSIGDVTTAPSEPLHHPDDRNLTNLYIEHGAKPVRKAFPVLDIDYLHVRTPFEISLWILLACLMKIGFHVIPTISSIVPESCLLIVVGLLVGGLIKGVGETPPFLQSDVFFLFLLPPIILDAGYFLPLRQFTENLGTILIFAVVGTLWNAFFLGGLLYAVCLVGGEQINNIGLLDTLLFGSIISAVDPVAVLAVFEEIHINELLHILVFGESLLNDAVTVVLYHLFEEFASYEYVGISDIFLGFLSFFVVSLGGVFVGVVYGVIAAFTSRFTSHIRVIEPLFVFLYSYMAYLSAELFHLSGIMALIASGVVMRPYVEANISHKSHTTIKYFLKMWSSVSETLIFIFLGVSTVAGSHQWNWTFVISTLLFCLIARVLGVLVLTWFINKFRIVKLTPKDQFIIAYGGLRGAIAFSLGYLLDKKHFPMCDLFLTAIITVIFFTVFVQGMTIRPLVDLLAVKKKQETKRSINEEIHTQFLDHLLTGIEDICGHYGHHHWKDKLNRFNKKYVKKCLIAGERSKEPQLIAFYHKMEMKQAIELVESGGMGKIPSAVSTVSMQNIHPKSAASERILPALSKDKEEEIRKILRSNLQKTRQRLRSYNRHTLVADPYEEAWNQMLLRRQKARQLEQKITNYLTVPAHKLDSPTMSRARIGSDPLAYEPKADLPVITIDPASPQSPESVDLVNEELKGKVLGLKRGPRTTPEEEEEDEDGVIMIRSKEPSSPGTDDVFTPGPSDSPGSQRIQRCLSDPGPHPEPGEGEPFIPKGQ
Chain of Sodium/hydrogen exchanger 1 (Oryctolagus cuniculus, UniProt P23791) (P23791 whole entry): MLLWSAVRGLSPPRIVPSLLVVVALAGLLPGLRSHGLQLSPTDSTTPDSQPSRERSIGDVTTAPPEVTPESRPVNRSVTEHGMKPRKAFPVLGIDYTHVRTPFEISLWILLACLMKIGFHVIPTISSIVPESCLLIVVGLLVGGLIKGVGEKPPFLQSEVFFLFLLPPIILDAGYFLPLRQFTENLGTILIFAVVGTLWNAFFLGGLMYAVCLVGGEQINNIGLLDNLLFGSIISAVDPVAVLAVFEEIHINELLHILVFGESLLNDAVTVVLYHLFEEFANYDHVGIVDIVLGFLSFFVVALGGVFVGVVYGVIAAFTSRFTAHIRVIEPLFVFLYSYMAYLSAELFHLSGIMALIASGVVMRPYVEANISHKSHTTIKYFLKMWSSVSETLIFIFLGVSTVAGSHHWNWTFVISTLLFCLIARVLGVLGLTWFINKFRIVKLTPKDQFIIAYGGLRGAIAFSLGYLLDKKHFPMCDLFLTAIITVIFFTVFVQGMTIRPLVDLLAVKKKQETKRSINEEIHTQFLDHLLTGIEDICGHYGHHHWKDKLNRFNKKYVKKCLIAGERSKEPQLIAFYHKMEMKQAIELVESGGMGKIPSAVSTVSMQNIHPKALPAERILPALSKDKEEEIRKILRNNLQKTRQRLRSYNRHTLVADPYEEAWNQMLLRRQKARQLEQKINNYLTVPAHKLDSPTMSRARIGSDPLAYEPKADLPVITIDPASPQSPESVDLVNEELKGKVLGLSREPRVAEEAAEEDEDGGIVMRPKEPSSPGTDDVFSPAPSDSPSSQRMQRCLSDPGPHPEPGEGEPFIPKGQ

Regarding `CN(C)c1nc(N)c(C(=O)NC(=N)N)nc1Cl`, the values for the IC50 in assay [1], in assay [2] and in assay [3] were 14000 nM, 250 nM and 23 nM, respectively.
In the case of `C/C(=C\c1cccc(/C=C(\C)C(=O)NC(=N)N)c1)C(=O)N=C(N)N`, the Ratio IC50 in the assay filed under Homo sapiens is > 500.
Turning to `CCN(c1nc(N)c(C(=O)NC(=N)N)nc1Cl)C(C)C` [5-(N-ETHYL-N-ISOPROPYL)AMILORIDE], the IC50 in assay [1] was 2400 nM; in assay [4] it was 20 nM; in assay [3], 10 nM; in assay [5], 420 nM; in assay [6], 500 nM.
